According to PMC4977052, “On the Utility of ToxCast™ and ToxPi as Methods for Identifying New Obesogens” (Environmental Health Perspectives, 2016):
Read-outs that look alike come from different tables or passages of the source.

Columns and labels:
[1] = tested on: mouse bone marrow-derived mesenchymal stem cells (mBMSCs); assay type: cell-based; conditions: for Induction of adipogenesis in mBMSCs, doses: lipid accumulation, Nile red/Hoechst; for Induction of adipogenesis in mBMSCs, doses / Adipogenic gene expression (Fabp4, Fsp27, Lpl), QPCR: Figure 2B; for Adipogenic gene expression (Fabp4, Fsp27, Lpl), QPCR: mBMSCs
Procedure: A total of 8 × 10^4 cells/well mouse bone marrow-derived mesenchymal stem cells (mBMSCs) (OriCell™) were seeded in 12-well plates in basic medium: high-glucose DMEM (Hyclone) containing 10% calf bovine serum (Premium Select, Atlanta Biologicals), 100 IU/mL penicillin, 100 μg/mL streptomycin, and 1 mM sodium pyruvate. mBMSCs were induced to differentiate in differentiation media (low glucose αMEM containing 15% fetal bovine serum (Premium Select, Atlanta Biologicals), 100 IU/mL penicillin, 100 μg/mL streptomycin and 2 mM L-glutamine) with adipogenic cocktail (500 μM isometylbutylxanthine, 1 μM dexamethasone, 5 μg/mL insulin) and either 500 nM ROSI, 50 nM TBT or ToxCast™ chemicals (as noted for 3T3-L1 cells) for 14 days, replacing the media every 3 days.
Cells were either fixed in 3.7% formaldehyde in phosphate-buffered saline (PBS) for 30 min at room temperature (RT) for lipid quantitation, or homogenized in TriPure (Roche, Mannheim, Germany) for gene expression analysis. For lipid quantitation, fixed cells were washed twice with PBS and maintained in PBS overnight at 4°C to release residual phenol red. Background of cells were measured prior to staining. Cells were stained with 1 μg/mL Nile red (CAS No. 7385-67-3) (to detect lipid accumulation) and 1 μg/mL Hoechst 33342 (ThermoFisher Scientific) (to detect nuclei as a surrogate for cell number) in PBS for 15 min in the dark at RT and washed twice with PBS. […] Background values of Hoechst and Nile red were subtracted from the RFUs after staining and the ratio RFUNile Red:RFUHoechst was calculated. Data are represented as mean ± SEM. Total RNA was isolated using TriPure (Roche) as recommended by the manufacturer. Reverse transcription and quantitative real-time RT-PCR (QPCR) were performed using Transcriptor RT and SYBR® Green Master Mix (Roche). cDNA was quantitated in a LightCycler® 480 System (Roche Diagnostics, Basel, Switzerland) using primer sets listed in Table S4. Each primer set amplified a single band as determined by gel electrophoresis and melting curve analysis. QPCR data were analyzed using the 2^ΔΔCt method ([Livak and Schmittgen 2001]) relative to ribosomal protein 36b4, normalizing to 0.1% DMSO vehicle. Error bars represent the SEM from four to six biological replicates calculated using standard propagation of error ([Bevington and Robinson 2003]).

PPARγ [2] = conditions: cited from earlier work; for PPARγ agonists: EC10, NCGC: AC10, ToxCast 2014 release; for AC50: PPARγ, NA = not active; for EC50: gain AC50, ToxCast 2014 release, read-out: PPARγ agonists: EC50, NCGC
PPRE = tested on: PPRE; parameters: method as in Knudsen et al. 2011; conditions: ToxCast Phase I 2011 release; NA = not active; ref Knudsen et al. 2011; read-out: ATGC PPRE AC50; cited from earlier work
COS7 cells = assay: Cytotoxicity in transfected COS7 cells measured as decreased β-galactosidase activity
Procedure: (§1) pCMX-Gal4, pCMX-Gal4-mPPARγ, and pCMX-Gal4-hRXRα were previously described ([Grün et al. 2006]). Transient transfections were performed in COS7 cells as described ([Chamorro-García et al. 2012]). Briefly, COS7 cells were seeded at 15,000 cells per well in 96-well tissue culture plates in 10% calf bovine serum. The following day, cells were transfected in Opti-MEM at ~ 90% confluency. One microgram of CMX-GAL4 effector plasmid was co-transfected with 5 μg tk-(MH100)4-luciferase reporter and 5 μg of CMX-β-galactosidase transfection control plasmids in Opti-MEM® using Lipofectamine® 2000 reagent (Invitrogen™ Life Technologies, Carlsbad, CA, USA), following the manufacturer’s recommended protocol. All chemicals were solvated in dimethyl sulfoxide (DMSO). After overnight incubation, the medium was replaced with Dulbecco’s Modified Eagle Medium (DMEM; HyClone, Logan, UT, USA), 10% resin charcoal stripped fetal bovine serum (FBS) plus ligands at concentrations indicated in the figure legends for an additional 24 hr. DMSO concentration was maintained at 0.05% across all chemical treatments. Cells were lysed and assayed for luciferase and β-galactosidase activity as previously described ([Forman et al. 1995]). All transfections were performed in triplicate and reproduced in multiple experiments. Data are reported as fold induction or reduction over vehicle ([…]) controls ± SEM (standard error of the mean) using standard propagation of error ([Bevington and Robinson 2003]). […] The EC50, EC10, IC50, and IC10 values from NCGC and ToxCast™ are reported from gain AC50 and AC10 values in the ToxCast™ 2014 release ([Filer et al. 2014]).
(§2) Figure 1 ToxCast™ Chemical Activity on PPARγ. The ability of a graded dose series of ToxCast™ chemicals to (A) activate or (B) antagonize GAL4-mPPARγ was tested in transiently transfected COS7 cells. (A, B) Data points are averages of triplicate transfections (three biological replicates). […] Data are depicted as (A) fold induction or (B) reduction over vehicle (0.05% DMSO) controls ± SEM. (A) ToxCast™ chemicals were tested in 3-fold serial dilutions from 100 μM through 0.137 μM, with the final data point being 0.05% DMSO. Rosiglitazone serves as a positive control activator. (B) ToxCast™ chemicals were tested in 3-fold serial dilutions from 100 μM, in competition with 50 nM rosiglitazone (Rosi). […] (C) EC50, EC10, IC50, and IC10 values calculated from A and B are reported and compared to commercial assays (see Figure S1). Note: ATG, Attagene GAL-PPARγ activation assay; NCGC, GeneBLAzer® agonist (EC values) or antagonist (IC values) assays. Triphenyltin was previously published ([Kanayama et al. 2005]).

GAL4-mPPARγ = target: T1, GAL4-mPPARγ (Mus musculus, UniProt P37238); assay: GAL4-mPPARγ antagonism in competition with 50 nM rosiglitazone, transiently transfected COS7 cells; assay type: cell-based
T1 construct: expressed in transfected cells; host or cells: COS7
Procedure: as §1, §2

Human PPARγ = conditions: PPARγ direct binding, NA = not active, cited from earlier work
PPARγ [3] = tested on: PPARγ; parameters: method as in Filer et al. 2014; conditions: ref Filer et al. 2014, cited from earlier work; for AC50: PPARγ, NA = not active, read-out: NCGC Antag. AC50, 2014 Release
[4] = ref Filer et al. 2014, read-out: NCGC Agonist AC50, 2014 Release
[5] = ref Knudsen et al. 2011, read-out: NCGC Agonist AC50, 2011 Release

T1 sequence (P37238 with tags, fused parts or gaps limits assumed): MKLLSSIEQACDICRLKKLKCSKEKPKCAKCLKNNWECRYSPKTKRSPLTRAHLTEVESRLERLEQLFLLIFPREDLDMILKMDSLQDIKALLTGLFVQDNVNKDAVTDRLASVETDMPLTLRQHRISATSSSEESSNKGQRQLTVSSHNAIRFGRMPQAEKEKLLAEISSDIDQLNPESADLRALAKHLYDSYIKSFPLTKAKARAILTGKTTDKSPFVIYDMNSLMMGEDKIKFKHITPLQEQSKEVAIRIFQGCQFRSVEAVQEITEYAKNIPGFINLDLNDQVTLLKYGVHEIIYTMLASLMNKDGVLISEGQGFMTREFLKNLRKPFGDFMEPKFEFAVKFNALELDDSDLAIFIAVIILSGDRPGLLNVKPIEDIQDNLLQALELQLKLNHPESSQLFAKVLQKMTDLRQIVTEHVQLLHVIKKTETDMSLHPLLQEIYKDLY

SMILES: Fc1ccc(Oc2ccnc3cc(Cl)cc(Cl)c23)cc1 [Quinoxyfen]
- Adipogenic differentiation of mBMSCs (result in words) ([1]; 14 days, Figure 7): could differentiate these uncommitted stem cells into adipocytes
- PPARγ agonists: EC10, NCGC (PPARγ [2]; ref Filer et al. 2014): 2440 nM
- AC50 (PPARγ [2]; [4]): 40600 nM
- AC50 (PPARγ [2]; [5]): 6700 nM
- EC50 (PPARγ [2]; ref Filer et al. 2014): 40600 nM
- AC50 (PPRE): 2800 nM

SMILES: CCC(C)(C)C(=O)OC1=C(c2ccc(Cl)cc2Cl)C(=O)OC12CCCCC2 [Spirodiclofen]
- Concentration at which cytotoxicity (decreased β-galactosidase activity) was observed (COS7 cells; transfected COS7 cells, 24 hr): 100 µM
- Induction of adipogenesis in mBMSCs, doses ([1]; 14 days): induced adipogenesis at 10 and 20 μM
- Adipogenic gene expression (Fabp4, Fsp27, Lpl), QPCR [1]: increases
- PPARγ agonists: EC10, NCGC (PPARγ [2]; ref Filer et al. 2014): 170 nM
- AC50 (PPARγ [2]; [4]): 1600 nM
- AC50 (PPARγ [2]; [5]): 2800 nM
- EC50 (PPARγ [2]; ref Filer et al. 2014): 1640 nM

SMILES: O=[N+]([O-])c1cc(C(F)(F)F)c(Cl)c([N+](=O)[O-])c1Nc1ncc(C(F)(F)F)cc1Cl [Fluazinam]
- IC50 (GAL4-mPPARγ): 7200 nM
- AC50 (GAL4-mPPARγ; Activation AC50 (PPARγ antagonists), Cos-7 transient transfection, competition with 50 nM rosiglitazone): 7200 nM
- Antagonism of PPARγ (GAL4-mPPARγ; COS7, competition against 50 nM rosiglitazone): weak antagonists
- PPARγ antagonists: IC10, Fig 1B (GAL4-mPPARγ; COS7, in competition with 50 nM rosiglitazone, computed from IC50): 4410 nM
- Activation COS7 (result in words): PPARγ antagonist (GAL4-mPPARγ; Cos-7 transient transfection, competition with 50 nM rosiglitazone): PPARγ antagonist
- Concentration at which cytotoxicity (decreased β-galactosidase activity) was observed (COS7 cells; transfected COS7 cells, 24 hr): 100 µM
- AC50 (Human PPARγ; ref Filer et al. 2014, read-out: NVS Agonist AC50, 2014 Release): 260 nM
- AC50 (Human PPARγ; ref Knudsen et al. 2011, read-out: NVS Agonist AC50, 2011 Release): 280 nM
- AC50 (PPARγ [2]; [4]): 70 nM
- PPARγ antagonists: IC10, NCGC (PPARγ [3]; AC10, ToxCast 2014 release): 200 nM
- AC50 (PPARγ [3]): 1300 nM
- IC50 (PPARγ [3]; read-out: PPARγ antagonists: IC50, NCGC, gain AC50, ToxCast 2014 release): 1270 nM

SMILES: CCC(C)(NC(=O)c1cc(Cl)c(C)c(Cl)c1)C(=O)CCl (stereo not shown) [Zoxamide]
- Concentration at which cytotoxicity (decreased β-galactosidase activity) was observed (COS7 cells; African green monkey, 24 h): ≥ 10 µM
- Lipid accumulation: TOXIC mark in place of bar [1]: TOXIC
- Induction of adipogenesis in mBMSCs, doses ([1]; 14 days): induced differentiation at 2 and 10 μM
- Adipogenic gene expression (Fabp4, Fsp27, Lpl), QPCR [1]: increases
- Concentration toxic to mBMSCs ([1]; mouse, 14 days): ≥ 20 µM
- AC50 (PPARγ [3]): 400 nM
